Assay results taken from ChEMBL document CHEMBL3885861, “Open TG-GATES”.

Species on record: Rattus norvegicus
Experiment: Open TG-GATES - Regimen: Single
Type: toxicity, organism-based, Sprague-Dawley
Design: regimen Single, gender Male, age 6 weeks
Details: in vivo, po, 0 mg/kg, route gavage, dose level Control; for APTT / Bas / Eos / Fbg / Hb / Ht / Lym / MCH / MCHC / MCV / Mono / Neu / PT / Plat / RBC / Ret / WBC: tissue Blood; for KIDNEY_L / KIDNEY_R / KIDNEY_TOTAL: tissue Kidney; for LIVER: tissue Liver; for A/G / ALP / ALT / AST / BUN / CRE / Ca / Cl / DBIL / GLC / IP / K / LDH / Na / PL / RALB / TBIL / TC / TG / TP / gamma-GTP: tissue Plasma

CC(S)C(=O)NCC(=O)O (configuration not stated) [TIOPRONIN]
TERMINAL_BW (3 h): 208.8 g | APTT (3 h): 22.5 s | Bas (3 h): 0% | Eos (3 h): 0.8% | Fbg (3 h): 292.4 mg/dL | Hb (3 h): 13.1 g/dL | Ht (3 h): 40.4% | Lym (3 h): 81.6% | MCH (3 h): 20.2 pg | MCHC (3 h): 32.5% | MCV (3 h): 62.3 fL | Mono (3 h): 1.4% | Neu (3 h): 15.8% | PT (3 h): 16.1 s | Plat (3 h): 120.4 x10_4/uL | RBC (3 h): 649.6 x10_4/ul | Ret (3 h): 7.5% | WBC (3 h): 75.2 x10_2/uL | KIDNEY_L (3 h): 0.9 g | KIDNEY_R (3 h): 0.9 g | KIDNEY_TOTAL (3 h): 1.8 g | LIVER (3 h): 9.1 g | A/G (3 h): 1.2 | ALP (3 h): 2032.2 IU/L | ALT (3 h): 46 IU/L | AST (3 h): 80.4 IU/L | BUN (3 h): 11.4 mg/dL | CRE (3 h): 0.1 mg/dL | Ca (3 h): 10.7 mg/dL | Cl (3 h): 107 meq/L | DBIL (3 h): 0.002 mg/dL | GLC (3 h): 190.8 mg/dL | IP (3 h): 7.7 mg/dL | K (3 h): 4.1 meq/L | LDH (3 h): 203.8 IU/L | Na (3 h): 143.8 meq/L | PL (3 h): 128.6 mg/dL | RALB (3 h): 2.9 g/dL | TBIL (3 h): 0.02 mg/dL | TC (3 h): 70.8 mg/dL | TG (3 h): 65.4 mg/dL | TP (3 h): 5.4 g/dL | gamma-GTP (3 h): 1.8 IU/L | TERMINAL_BW (6 h): 208.1 g | APTT (6 h): 21.5 s | Bas (6 h): 0% | Eos (6 h): 0.2% | Fbg (6 h): 295.4 mg/dL | Hb (6 h): 13 g/dL | Ht (6 h): 39.8% | Lym (6 h): 83% | MCH (6 h): 21 pg | MCHC (6 h): 32.8% | MCV (6 h): 64.1 fL | Mono (6 h): 1.8% | Neu (6 h): 14.2% | PT (6 h): 15.8 s | Plat (6 h): 116.3 x10_4/uL | RBC (6 h): 621 x10_4/ul | Ret (6 h): 8.1% | WBC (6 h): 116.1 x10_2/uL | KIDNEY_L (6 h): 0.9 g | KIDNEY_R (6 h): 1 g | KIDNEY_TOTAL (6 h): 1.9 g | LIVER (6 h): 9 g | A/G (6 h): 1.2 | ALP (6 h): 1487.4 IU/L | ALT (6 h): 39 IU/L | AST (6 h): 69.6 IU/L | BUN (6 h): 10.6 mg/dL | CRE (6 h): 0.1 mg/dL | Ca (6 h): 10.5 mg/dL | Cl (6 h): 106.4 meq/L | DBIL (6 h): 0.002 mg/dL | GLC (6 h): 184.2 mg/dL | IP (6 h): 8.8 mg/dL | K (6 h): 4.4 meq/L | LDH (6 h): 154.4 IU/L | Na (6 h): 143.8 meq/L | PL (6 h): 141.4 mg/dL | RALB (6 h): 2.9 g/dL | TBIL (6 h): 0.022 mg/dL | TC (6 h): 80.2 mg/dL | TG (6 h): 72.2 mg/dL | TP (6 h): 5.3 g/dL | gamma-GTP (6 h): 1.6 IU/L | TERMINAL_BW (9 h): 209.7 g | APTT (9 h): 22.9 s | Bas (9 h): 0% | Eos (9 h): 0.8% | Fbg (9 h): 294.2 mg/dL | Hb (9 h): 12.7 g/dL | Ht (9 h): 39.4% | Lym (9 h): 81.6% | MCH (9 h): 19.9 pg | MCHC (9 h): 32.1% | MCV (9 h): 61.7 fL | Mono (9 h): 2% | Neu (9 h): 15.2% | PT (9 h): 16.2 s | Plat (9 h): 121.4 x10_4/uL | RBC (9 h): 639.2 x10_4/ul | Ret (9 h): 8.3% | WBC (9 h): 95.7 x10_2/uL | KIDNEY_L (9 h): 0.9 g | KIDNEY_R (9 h): 0.9 g | KIDNEY_TOTAL (9 h): 1.9 g | LIVER (9 h): 9.1 g | A/G (9 h): 1.1 | ALP (9 h): 1667.4 IU/L | ALT (9 h): 36.2 IU/L | AST (9 h): 65.8 IU/L | BUN (9 h): 12.2 mg/dL | CRE (9 h): 0.1 mg/dL | Ca (9 h): 10.5 mg/dL | Cl (9 h): 105 meq/L | DBIL (9 h): 0 mg/dL | GLC (9 h): 195.8 mg/dL | IP (9 h): 9.8 mg/dL | K (9 h): 4.5 meq/L | LDH (9 h): 147 IU/L | Na (9 h): 143.8 meq/L | PL (9 h): 120.2 mg/dL | RALB (9 h): 2.8 g/dL | TBIL (9 h): 0.012 mg/dL | TC (9 h): 64.8 mg/dL | TG (9 h): 64.2 mg/dL | TP (9 h): 5.3 g/dL | gamma-GTP (9 h): 1.4 IU/L | TERMINAL_BW (24 h): 219.9 g | APTT (24 h): 21.2 s | Bas (24 h): 0% | Eos (24 h): 1% | Fbg (24 h): 307 mg/dL | Hb (24 h): 12.9 g/dL | Ht (24 h): 39.6% | Lym (24 h): 77.8% | MCH (24 h): 21.2 pg | MCHC (24 h): 32.7% | MCV (24 h): 64.7 fL | Mono (24 h): 3% | Neu (24 h): 17.4% | PT (24 h): 16.4 s | Plat (24 h): 115.1 x10_4/uL | RBC (24 h): 612 x10_4/ul | Ret (24 h): 7.6% | WBC (24 h): 103.4 x10_2/uL | KIDNEY_L (24 h): 1 g | KIDNEY_R (24 h): 1 g | KIDNEY_TOTAL (24 h): 2 g | LIVER (24 h): 10.1 g | A/G (24 h): 1.1 | ALP (24 h): 1636.2 IU/L | ALT (24 h): 44 IU/L | AST (24 h): 74.2 IU/L | BUN (24 h): 16.6 mg/dL | CRE (24 h): 0.2 mg/dL | Ca (24 h): 10.7 mg/dL | Cl (24 h): 105.6 meq/L | DBIL (24 h): 0 mg/dL | GLC (24 h): 196.4 mg/dL | IP (24 h): 7.1 mg/dL | K (24 h): 4.4 meq/L | LDH (24 h): 179.8 IU/L | Na (24 h): 142 meq/L | PL (24 h): 135.2 mg/dL | RALB (24 h): 2.8 g/dL | TBIL (24 h): 0.004 mg/dL | TC (24 h): 75.2 mg/dL | TG (24 h): 76.8 mg/dL | TP (24 h): 5.4 g/dL | gamma-GTP (24 h): 1.4 IU/L
